Reference: patent US20050192279A1, “Pyridazinones as antagonists of alpha4 integrins” (priority 2004, published 2005)

Legend:
[1] = biological target: T1, human α4β7 integrin (Homo sapiens, UniProt P13612+P26010); experiment: α4β7-K562 Cell Adhesion Assay (α4β7 Mediated Adhesion/MAdCAM-1); type: cell-based; conditions: α4β7-K562 cell adhesion to hMAdCAM-1; read-out: α4β7 IC50
T1 construct: expressed in transfected cells; host or cells: K562 cells, stably transfected
T1 sequence (P13612 34-1032): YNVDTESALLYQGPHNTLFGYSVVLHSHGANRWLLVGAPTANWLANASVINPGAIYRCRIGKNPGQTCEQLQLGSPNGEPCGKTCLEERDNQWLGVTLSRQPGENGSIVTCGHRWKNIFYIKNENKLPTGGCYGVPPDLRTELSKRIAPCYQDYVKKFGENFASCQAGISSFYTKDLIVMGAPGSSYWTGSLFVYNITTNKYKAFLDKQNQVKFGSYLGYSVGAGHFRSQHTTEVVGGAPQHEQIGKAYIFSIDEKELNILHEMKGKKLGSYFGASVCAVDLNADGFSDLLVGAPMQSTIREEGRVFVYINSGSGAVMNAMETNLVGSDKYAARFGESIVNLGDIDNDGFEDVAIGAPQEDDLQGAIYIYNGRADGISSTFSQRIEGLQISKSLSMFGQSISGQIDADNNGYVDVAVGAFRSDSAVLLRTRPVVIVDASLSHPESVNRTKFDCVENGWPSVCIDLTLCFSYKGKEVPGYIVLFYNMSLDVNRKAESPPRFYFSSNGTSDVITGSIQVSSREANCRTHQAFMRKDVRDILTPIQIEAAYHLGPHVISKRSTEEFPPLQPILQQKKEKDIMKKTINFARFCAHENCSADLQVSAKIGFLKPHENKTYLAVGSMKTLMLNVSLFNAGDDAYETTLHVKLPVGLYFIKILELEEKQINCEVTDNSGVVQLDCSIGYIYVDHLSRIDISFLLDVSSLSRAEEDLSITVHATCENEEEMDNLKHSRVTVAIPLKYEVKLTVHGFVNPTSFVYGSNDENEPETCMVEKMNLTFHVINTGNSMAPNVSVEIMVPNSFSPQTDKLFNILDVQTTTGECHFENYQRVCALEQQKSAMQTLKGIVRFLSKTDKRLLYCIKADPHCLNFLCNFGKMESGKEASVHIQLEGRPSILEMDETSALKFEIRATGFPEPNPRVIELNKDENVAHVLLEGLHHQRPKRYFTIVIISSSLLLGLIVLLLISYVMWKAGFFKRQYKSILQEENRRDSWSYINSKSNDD
T1 sequence (P26010 20-798): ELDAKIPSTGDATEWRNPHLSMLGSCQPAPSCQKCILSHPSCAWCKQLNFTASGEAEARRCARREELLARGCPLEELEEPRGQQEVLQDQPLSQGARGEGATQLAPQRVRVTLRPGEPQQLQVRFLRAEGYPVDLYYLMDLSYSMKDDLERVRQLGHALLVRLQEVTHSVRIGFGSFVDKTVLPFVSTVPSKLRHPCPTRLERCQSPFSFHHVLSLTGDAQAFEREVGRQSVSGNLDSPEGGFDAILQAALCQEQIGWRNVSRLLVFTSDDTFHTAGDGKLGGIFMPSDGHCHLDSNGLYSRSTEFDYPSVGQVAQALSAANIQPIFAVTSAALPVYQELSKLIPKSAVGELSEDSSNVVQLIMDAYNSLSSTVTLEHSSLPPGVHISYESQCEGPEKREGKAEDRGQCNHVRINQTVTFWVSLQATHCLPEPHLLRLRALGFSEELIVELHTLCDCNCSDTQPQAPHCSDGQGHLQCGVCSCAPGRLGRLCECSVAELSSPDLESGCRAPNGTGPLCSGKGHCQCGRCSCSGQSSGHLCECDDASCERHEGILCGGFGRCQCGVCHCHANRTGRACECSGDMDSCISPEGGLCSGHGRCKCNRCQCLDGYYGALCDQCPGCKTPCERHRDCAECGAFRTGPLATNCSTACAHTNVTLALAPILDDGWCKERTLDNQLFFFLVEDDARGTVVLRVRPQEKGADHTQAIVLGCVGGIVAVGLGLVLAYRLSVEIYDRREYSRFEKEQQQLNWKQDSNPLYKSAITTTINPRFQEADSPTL
Protocol: α4β7-K562 Cell Adhesion Assay (α4β7 Mediated Adhesion/MAdCAM-1)
M2 anti-FLAG Antibody Coated 96-well plates (Sigma) were coated for 1 hour at 4° C. with 2-8 μl/well recombinant FLAG-hMAdCAM-1 contained in 100 μL of Dulbecco's PBS, pH 7.4, with 1% BSA and 1 mM Mn ^+2 (PBS-BSA-Mn). Plates were washed once with PBS-BSA-Mn. Buffer was removed and compounds to be tested (50 μL) were added at 2× concentration. Stably transfected K562 cells expressing human α4β7 integrin, (50 μL at 2×10^6/mL) that had been labeled with 100 μg/ml carboxymethyl fluorescein diacetate succinimidyl ester (CFDA-SE; Molecular Probes) for 15 min at 37° C. were added to each well and allowed to adhere for 1 h at room temperature. Plates were washed 4× in PBS-BSA-Mn and then cells were lysed for 2 minutes by addtion of 100 μL of PBS without Ca, Mg supplemented with 0.1 M NaOH.

[2] = biological target: T2, α4β1 (Homo sapiens, UniProt P05556+P13612); experiment: Ramos Cell Adhesion Assay (α4β1 Mediated Adhesion/VCAM-1); type: cell-based; conditions: Ramos cell adhesion to hVCAM-1; read-out: α4β1 IC50
T2 construct: Ramos Cell Adhesion Assay (α4β1 Mediated Adhesion/VCAM-1); endogenous in cells; host or cells: Ramos cells
T2 sequence (P05556 21-798, one chain of several): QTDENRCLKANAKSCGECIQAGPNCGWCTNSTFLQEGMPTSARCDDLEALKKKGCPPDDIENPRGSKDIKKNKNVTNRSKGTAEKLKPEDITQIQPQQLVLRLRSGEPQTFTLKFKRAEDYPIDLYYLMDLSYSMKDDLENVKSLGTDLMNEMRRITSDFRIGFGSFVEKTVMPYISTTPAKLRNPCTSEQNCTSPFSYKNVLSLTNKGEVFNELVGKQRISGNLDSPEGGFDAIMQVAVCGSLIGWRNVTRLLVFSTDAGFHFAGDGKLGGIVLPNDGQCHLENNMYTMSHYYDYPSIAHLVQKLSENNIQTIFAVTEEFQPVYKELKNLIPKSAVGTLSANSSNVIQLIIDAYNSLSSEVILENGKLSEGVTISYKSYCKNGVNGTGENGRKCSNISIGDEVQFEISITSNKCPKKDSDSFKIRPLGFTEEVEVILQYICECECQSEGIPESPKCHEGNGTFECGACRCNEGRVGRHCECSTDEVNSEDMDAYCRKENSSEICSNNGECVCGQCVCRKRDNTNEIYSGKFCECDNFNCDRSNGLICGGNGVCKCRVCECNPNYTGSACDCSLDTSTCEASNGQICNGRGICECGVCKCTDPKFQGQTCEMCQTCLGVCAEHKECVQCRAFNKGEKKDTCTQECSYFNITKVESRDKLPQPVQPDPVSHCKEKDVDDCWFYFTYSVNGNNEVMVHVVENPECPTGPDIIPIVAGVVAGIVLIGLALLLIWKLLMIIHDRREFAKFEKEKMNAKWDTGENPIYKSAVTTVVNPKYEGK
Protocol: Ramos Cell Adhesion Assay (α4β1 Mediated Adhesion/VCAM-1)
Immulon 96 well plates (Dynex) were coated with 100 μL recombinant hVCAM-1 at 4.0 μg/mL in 0.05 M NaCO3 buffer pH 9.0 overnight at 4° C. (R&D Systems). Plates were washed 2 times in PBS with 1% BSA and blocked for 1 h @ room temperature in this buffer. PBS was removed and compounds to be tested (50 μL) were added at 2× concentration. Ramos cells, (50 μL at 2×10^6/mL) labeled with 5 μM Calcein AM (Molecular Probes) for 1 h at 37° C., were added to each well and allowed to adhere for 1 h at room temperature. Plates were washed 4× in PBS+1% BSA and cells were lysed for 15 minutes in 100 μL of 1 M Tris pH 8.0 with 1% SDS.

| Structure (SMILES) | IC50 [1] [nM] | IC50 [2] [nM] |
| --- | --- | --- |
| C=CCNc1cnn(CC(C)=O)c(=O)c1-c1ccc(C[C@H](NC(=O)c2c(Cl)cccc2Cl)C(=O)O)cc1 [Cpd 36] | 9 | 1310 |
| Cn1ncc(OCC(F)(F)F)c(-c2ccc(C[C@H](NC(=O)c3c(Cl)cccc3Cl)C(=O)O)cc2)c1=O [Cpd 37] | 9 | 474 |
| COc1cnn(C)c(=O)c1-c1ccc(C[C@H](NC(=O)C2(C(N)=O)CC2)C(=O)O)cc1 [Cpd 38] | 9 | > 5000 |
| COc1cnn(CC(F)(F)F)c(=O)c1-c1ccc(C[C@H](NC(=O)c2c(Cl)cccc2Cl)C(=O)O)cc1 [Cpd 39] | 10 | 588 |
| COc1cnn(C)c(=O)c1-c1ccc(C[C@H](NC(=O)C2(NC3CCCCC3)CC2)C(=O)O)cc1 [Cpd 40] | 38 | > 5000 |
| Cn1ncc(OC2CCCCC2)c(-c2ccc(C[C@H](NC(=O)c3c(Cl)cccc3Cl)C(=O)O)cc2)c1=O [Cpd 41] | 11 | 152 |
| COc1cnn(C)c(=O)c1-c1ccc(C[C@H](NC(=O)C2(NC(C)C)CCOCC2)C(=O)O)cc1 [Cpd 42] | 59 | 936 |
| O=C(N[C@@H](Cc1ccc(-c2c(OC3CCCC3)cnn(CCO)c2=O)cc1)C(=O)O)c1c(Cl)cccc1Cl [Cpd 43] | 12 | 437 |
| COc1cnn(C)c(=O)c1-c1ccc(C[C@H](NC(=O)[C@H](C(C)C)N(C)C(=O)OC(C)(C)C)C(=O)O)cc1 [Cpd 48] | 13 | 974 |
| Cn1ncc(Cl)c(-c2ccc(C[C@H](NC(=O)c3c(Cl)cccc3Cl)C(=O)O)cc2)c1=O [Cpd 49] | 14 | 486 |
| COc1cnn(C)c(=O)c1-c1ccc(C[C@H](NC(=O)[C@@H](C)N(C)C(=O)Cc2ccsc2)C(=O)O)cc1 [Cpd 50] | 14 | 229 |
| Cn1ncc(N2CCCC2)c(-c2ccc(C[C@H](NC(=O)c3c(Cl)cccc3Cl)C(=O)O)cc2)c1=O [Cpd 51] | 16 | 113 |
| Cn1ncc(OCc2ccccc2)c(-c2ccc(C[C@H](NC(=O)c3c(Cl)cccc3Cl)C(=O)O)cc2)c1=O [Cpd 52] | 17 | 663 |
| O=C(N[C@@H](Cc1ccc(-c2c(OC3CCC3)cnn(CCO)c2=O)cc1)C(=O)O)c1c(Cl)cccc1Cl [Cpd 53] | 17 | 269 |
| COc1cnn(-c2ccccc2)c(=O)c1-c1ccc(C[C@H](NC(=O)c2c(Cl)cccc2Cl)C(=O)O)cc1 [Cpd 56] | 18 | 3860 |
| Cn1ncc(OC2CCCC2)c(-c2ccc(C[C@H](NC(=O)c3c(Cl)cccc3Cl)C(=O)O)cc2)c1=O [Cpd 60] | 20 | 155 |

| Structure (SMILES) | IC50 [1] [nM] | IC50 [2] [nM] |
| --- | --- | --- |
| Cn1ncc(O)c(-c2ccc(C[C@H](NC(=O)c3c(Cl)cncc3Cl)C(=O)O)cc2)c1=O [Cpd 62] | 21 | 40 |
| CS(=O)(=O)c1ccc(-c2cnn(CC3CC3)c(=O)c2-c2ccc(C[C@H](NC(=O)c3c(Cl)cccc3Cl)C(=O)O)cc2)cc1 [Cpd 65] | 21 | 4220 |
| CN[C@H](C(=O)N[C@@H](Cc1ccc(-c2c(OC)cnn(C)c2=O)cc1)C(=O)O)[C@@H](C)OCc1ccccc1 [Cpd 68] | 24 | 473 |
| CN1CCC(Oc2cnn(CCO)c(=O)c2-c2ccc(C[C@H](NC(=O)c3c(Cl)cccc3Cl)C(=O)O)cc2)C1 (stereo partly shown) [Cpd 72] | 26 | 190 |
| CC(C)Oc1cnn(C)c(=O)c1-c1ccc(C[C@H](NC(=O)c2c(Cl)cccc2Cl)C(=O)O)cc1 [Cpd 74] | 27 | 135 |
| COc1cnn(C)c(=O)c1-c1ccc(C[C@H](NC(=O)c2c(Cl)cccc2Cl)C(=O)OCCCl)cc1 [Cpd 75] | 28 | > 5000 |
| CSc1cnn(C(C)(C)C)c(=O)c1-c1ccc(C[C@H](NC(=O)c2c(Cl)cccc2Cl)C(=O)O)cc1 [Cpd 78] | 36 | 5610 |
| COc1cnn(C)c(=O)c1-c1ccc(C[C@H](NC(=O)C2(n3c(C)ccc3C)CC2)C(=O)O)cc1 [Cpd 80] | 228 | > 5000 |
| COc1cnn(C)c(=O)c1-c1ccc(C[C@H](NC(=O)[C@H](NC(=O)OC(C)(C)C)C(C)C)C(=O)O)cc1 [Cpd 81, (R)-2-(2-tert-Butoxycarbonylamino-3-methyl-butyrylamino)-3-(S)-[4-(5-methoxy-2-methyl-3-oxo-2,3-dihydro-pyridazin-4-yl)-phenyl]-propionic acid] | 39 | 987 |
| COc1cn[nH]c(=O)c1-c1ccc(C[C@H](NC(=O)c2c(Cl)cccc2Cl)C(=O)O)cc1 [Cpd 83] | 41 | 1020 |
| COc1cnn(C)c(=O)c1-c1ccc(C[C@H](NC(=O)c2ccc[nH]2)C(=O)O)cc1 [Cpd 84] | 41 | > 5000 |
| COc1cnn(C(C)(C)C)c(=O)c1-c1ccc(C[C@H](NC(=O)c2c(Cl)cccc2Cl)C(=O)O)cc1 [Cpd 85] | 42 | 794 |
| Cn1ncc(OCC2CC2)c(-c2ccc(C[C@H](NC(=O)c3c(Cl)cccc3Cl)C(=O)O)cc2)c1=O [Cpd 86, (S)-3-[4-(5-Cyclopropylmethoxy-2-methyl-3-oxo-2,3-dihydro-pyridazin-4-yl)-phenyl]-2-(2,6-dichloro-benzoylamino)-propionic acid] | 44 | 212 |
| COc1cnn(C)c(=O)c1-c1ccc(CC(NC(=O)C(C(C)C)n2cccc2)C(=O)O)cc1 (stereo not shown) [Cpd 87, 3-[4-(5-Methoxy-2-methyl-3-oxo-2,3-dihydro-pyridazin-4-yl)-phenyl]-2-(3-methyl-2-pyrrol-1-yl-butyrylamino)-propionic acid] | 44 | 278 |
| O=C(N[C@@H](Cc1ccc(-c2c(-n3ncc4ccccc43)cnn(CCO)c2=O)cc1)C(=O)O)c1c(Cl)cccc1Cl [Cpd 88] | 46 | 1040 |
| COc1cnn(C)c(=O)c1-c1ccc(C[C@H](NC(=O)[C@@H](C(C)C)N(C)C(=O)CCc2ccccc2)C(=O)O)cc1 [Cpd 90] | 48 | 4500 |
